Source: US20080026073A1, “METHOD AND COMPOSITION FOR LITHIUM ADDITIVE IN TREATMENT OF GLUTAMATE TOXICITY” (priority 2006, published 2008)

Tested on: retinal ganglion cells
Experiment: NMDA-induced glutamate toxicity mouse model for glaucoma: count of surviving retinal ganglion cells after oral feeding
Type: in vivo, mice
Details: for survival efficacy (percent of retinal ganglion cells that survive relative to no treatment): Example 3, FIG. 3, separate mouse pools

## O=C([O-])c1cc(=O)[nH]c(=O)[nH]1.[Li+] [Lithium, lithium orotate]
Example 1, FIG. 1, mice, oral ingestion, human equivalent dosage Lithium 5.8 mg lithium orotate per day, St. Johns Wort 2-4 grams per day
  increase in the surviving ganglion cells: about 15%
Example 2, FIG. 2, mice, gavage eight days, intravitreal NMDA 150 mM 0.5 microliter after six days, Li orotate 63 μg/day, herb 32 mg per mouse per day
  survival rate of retinal ganglion cells: about 15%
1/5th the dosage, human equivalent 1.16 mg lithium orotate
  survival efficacy (percent of retinal ganglion cells that survive relative to no treatment): approximately 13%
5 times the dosage, human equivalent 29 mg lithium orotate
  survival efficacy (percent of retinal ganglion cells that survive relative to no treatment): approximately 8%
